For data set [1], the target named is T1, Corticotropin-releasing factor receptor 1 (Homo sapiens, UniProt P34998).
T1 sequence (P34998 whole entry): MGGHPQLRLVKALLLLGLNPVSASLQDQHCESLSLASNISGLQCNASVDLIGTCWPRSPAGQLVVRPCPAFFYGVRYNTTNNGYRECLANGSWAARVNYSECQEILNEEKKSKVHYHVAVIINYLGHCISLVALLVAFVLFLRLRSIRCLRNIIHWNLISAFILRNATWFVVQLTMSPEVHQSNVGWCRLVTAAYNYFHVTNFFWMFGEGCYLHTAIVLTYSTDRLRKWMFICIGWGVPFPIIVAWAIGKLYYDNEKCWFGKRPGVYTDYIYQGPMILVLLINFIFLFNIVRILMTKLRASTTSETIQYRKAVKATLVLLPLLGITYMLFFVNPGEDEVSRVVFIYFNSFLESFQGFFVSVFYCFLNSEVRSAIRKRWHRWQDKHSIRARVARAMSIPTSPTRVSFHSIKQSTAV
The data set is described as follows: Inhibition of [125I]o-CRF binding to CHO cells expressing human CRF1 receptor. The class given is cell-based.

Data set [2] deals with T1, Corticotropin-releasing factor receptor 1. In words: Inhibition of CRF-stimulated cAMP production in CHO cells expressing human CRF1 receptor.
A short description of data set [3]: Plasma clearance determined in dawley rats. It is filed as ADME, organism-based. The conditions noted are these: Sprague-Dawley, rat.
Data set [4] can be described thus: Plasma volume distribution determined in dawley rats. The class given is ADME, organism-based. The conditions noted are these: Sprague-Dawley, rat.
Data set [5] in a line: Plasma half-life determined in dawley rats. The class given is ADME. The settings on record: Sprague-Dawley, rat.

Molecule `CCC(CC)Nc1cc(C)nc2c(-c3cnc(N(C)C)cc3C)c(C)nn12` came in with a Ki in data set [1] of 9.4 nM.

In turn, `CCCCN(CCCC)c1cc(C)nc2c(-c3cnc(N(C)C)cc3C)c(C)nn12` returned a Ki in data set [1] of 4.2 nM.

Turning to `Cc1cc(N(Cc2ccccc2)C(C)C)n2nc(C)c(-c3cnc(N(C)C)cc3C)c2n1`, the Ki in data set [1] worked out at 11 nM.

As to `CCN(Cc1ccc(C)cc1)c1cc(C)nc2c(-c3cnc(N(C)C)cc3C)c(C)nn12`, affinity in data set [1] was put at a Ki of 2.3 nM.

`CCCN(CCC)c1cc(C)nc2c(-c3ccc(N(C)C)nc3)c(C)nn12`: it took 110 nM to reach half-maximal inhibition in data set [2] (IC50). For the same molecule, the Ki in data set [1] worked out at 4.2 nM.

Take `CCCN(CCC)c1cc(C)nc2c(-c3cnc(N(C)C)cc3C)c(C)nn12`: the clearance in data set [3] is 112 mL/min/kg. Also, in data set [4], the Vd amounted to 16.7 L/kg. This molecule also showed a half-life in data set [5] of 1.7 h.

Consider `CCCN(CCC)c1c(F)c(C)nc2c(-c3cnc(N(C)C)cc3C)c(C)nn12`, for which, in data set [2], the midpoint of inhibition, the IC50, lay at 50 nM. The same molecule gave a Ki in data set [1] of 5.6 nM.

On to `Cc1cc(NC(C)CCC(C)C)n2nc(C)c(-c3cnc(N(C)C)cc3C)c2n1` (stereo not given), for which, in data set [1], affinity was put at a Ki of 13 nM.

`CCCN(CCC)c1cc(C)nc2c(-c3c(C)cc(N(C)C)nc3C)c(C)nn12` registered an IC50 in data set [2] of 40 nM. The Ki in data set [1] was 5.2 nM.

`CCN(Cc1ccccc1F)c1cc(C)nc2c(-c3cnc(N(C)C)cc3C)c(C)nn12` had a Ki in data set [1] of 3.4 nM.

`CCCN(c1ccccc1)c1cc(C)nc2c(-c3cnc(N(C)C)cc3C)c(C)nn12`: the affinity in data set [1] corresponds to a Ki of 8.8 nM.

With `CCCCN(Cc1ccccc1)c1cc(C)nc2c(-c3cnc(N(C)C)cc3C)c(C)nn12`, the inhibition constant Ki in data set [1] was 2.9 nM. Compared with the last molecule, the Ki is about 3-fold lower.

With `CCCN(CCOC)c1cc(C)nc2c(-c3ccc(OC)cc3OC)c(C)nn12`, the half-maximal inhibitory concentration (IC50) in data set [2] came to 76 nM.

Consider `CCCN(CCC)c1cc(C)nc2c(-c3cnc(C)cc3C)c(C)nn12`, for which, in data set [1], the Ki came to 7.3 nM.

In the case of `CCCN(Cc1ccccc1)c1cc(C)nc2c(-c3cnc(N(C)C)cc3C)c(C)nn12`, in data set [1], the inhibition constant Ki was 5.2 nM.

The molecule `CCCN(Cc1ccc2ccccc2c1)c1cc(C)nc2c(-c3cnc(N(C)C)cc3C)c(C)nn12` yielded an inhibition constant Ki in data set [1] of 15 nM.

With `CCN(Cc1ccccc1C)c1cc(C)nc2c(-c3cnc(N(C)C)cc3C)c(C)nn12`, the Ki in data set [1] stood at 2.4 nM.

In the case of `CCN(Cc1ccc(Cl)c(Cl)c1)c1cc(C)nc2c(-c3cnc(N(C)C)cc3C)c(C)nn12`, the Ki in data set [1] stood at 2.5 nM.

In data set [1], `CCCN(CCC)c1c(Br)c(C)nc2c(-c3cnc(N(C)C)cc3C)c(C)nn12` gave a Ki of 240 nM. This Ki is about 96-fold higher than that of the molecule before.

`CCN(Cc1ccc(Cl)cc1)c1cc(C)nc2c(-c3cnc(N(C)C)cc3C)c(C)nn12`: the Ki in data set [1] was determined as 1.3 nM.

Consider `CCC(COC)Nc1cc(C)nc2c(-c3cnc(N(C)C)cc3C)c(C)nn12` (stereo not given), for which, in data set [1], the Ki was determined as 260 nM.

In the case of `CCCN(CCC)c1c(Cl)c(C)nc2c(-c3cnc(N(C)C)cc3C)c(C)nn12`, the inhibition constant Ki in data set [1] is 39 nM.

`CCCN(CCC)c1cc(C)nc2c(-c3ccc(N(C)C)nc3C)c(C)nn12` had an IC50 in data set [2] of 190 nM. Besides, in data set [1], the Ki was 2.2 nM.

`COCC(Cc1ccccc1)Nc1cc(C)nc2c(-c3cnc(N(C)C)cc3C)c(C)nn12` (stereo not given) showed a Ki in data set [1] of 6.5 nM.

For the molecule `CCCN(CC1CC1)c1cc(C)nc2c(-c3ccc(Cl)cc3Cl)c(C)nn12`, in data set [2], the midpoint of inhibition, the IC50, lay at 29 nM. Further, affinity in data set [1] was put at a Ki of 1.6 nM.

`CCCN(CC1CC1)c1cc(C)nc2c(-c3cnc(N(C)C)cc3C)c(C)nn12`: in data set [1], the Ki was 2.6 nM.

As to `CCN(Cc1cccc(C)c1)c1cc(C)nc2c(-c3cnc(N(C)C)cc3C)c(C)nn12`, the affinity in data set [1] corresponds to a Ki of 2.4 nM. The Ki values of the last two molecules are within 1.5-fold of each other.

On to `Cc1cc(NC(C)C(C)C)n2nc(C)c(-c3cnc(N(C)C)cc3C)c2n1` (stereo not given), for which, in data set [1], the Ki turned out to be 17 nM.

Regarding `CCCC(CCC)Nc1cc(C)nc2c(-c3cnc(N(C)C)cc3C)c(C)nn12`, the Ki in data set [1] was determined as 4.8 nM. This Ki lies about 3.5-fold lower than the previous one.

`CCCCN(CC)c1cc(C)nc2c(-c3cnc(N(C)C)cc3C)c(C)nn12`: in data set [1], the affinity, expressed as Ki, was 2.6 nM.

With `CCCN(Cc1cccc(OC)c1)c1cc(C)nc2c(-c3cnc(N(C)C)cc3C)c(C)nn12`, affinity in data set [1] was put at a Ki of 24 nM.

`CCCN(CCC)c1cc(C)nc2c(-c3ccc(C)nc3)c(C)nn12` came in with a Ki in data set [1] of 21 nM.

`CCCN(CCC)c1cc(C)nc2c(-c3ncc(N(C)C)cc3C)c(C)nn12`: it took 160 nM to reach half-maximal inhibition in data set [2] (IC50). This counts as sub-micromolar.

By Ki is commonly meant the dissociation constant of the complex between target and ligand, obtained from inhibition or displacement. Lower therefore signals tighter binding. As usually defined, the IC50 is the concentration at which inhibition is half-maximal. A high value points to weaker potency. By clearance is commonly meant the rate of elimination divided by the concentration. Low readings indicate inefficient removal, high ones efficient removal. The term Vd denotes a proportionality between amount in the body and measured concentration, not a real space. Read a low Vd as confinement near the circulation. What is called half-life is how long it takes for the measured level to halve.

The record behind these values is ChEMBL document CHEMBL1138740, “Design of 2,5-dimethyl-3-(6-dimethyl-4-methylpyridin-3-yl)-7-dipropylaminopyrazolo[1,5-a]pyrimidine (NBI 30775/R121919) and structure--activity relationships of a series of potent and orally active corticotropin-releasing factor receptor antagonists” (J Med Chem, 2004).
